According to BigSolDB 2.1:

O=C(Nc1ccc(F)cc1F)c1cccnc1Oc1cccc(C(F)(F)F)c1
solubility (mole fraction)
Conditions | 278.15 K | 283.15 K | 288.15 K | 293.15 K | 298.15 K | 303.15 K | 308.15 K | 313.15 K | 318.15 K | 323.15 K
in DMF | 0.000523 | 0.000679 | 0.000847 | 0.00104 | 0.00127 | 0.00153 | 0.00182 | 0.00213 | 0.00255 | 0.00298
in ethanol | 0.000244 | 0.000319 | 0.000425 | 0.000537 | 0.000683 | 0.000901 | 0.00111 | 0.00142 | 0.00176 | 0.00216
in ethylene glycol | 1.42e-05 | 1.76e-05 | 2.25e-05 | 2.71e-05 | 3.28e-05 | 3.89e-05 | 4.62e-05 | 5.41e-05 | 6.34e-05 | 7.49e-05
in propylene glycol | 4.63e-05 | 5.76e-05 | 7.29e-05 | 9.02e-05 | 0.000108 | 0.000129 | 0.000152 | 0.00018 | 0.000209 | 0.000245
in water | 1.45e-07 | 2.02e-07 | 2.68e-07 | 3.33e-07 | 4.08e-07 | 4.98e-07 | 6.05e-07 | 7.25e-07 | 8.72e-07 | 1.04e-06
